“And” between values parts separate entries of the source, which are not always exact repeats. Equal values may be shown once. Read-outs that look alike come from different tables or passages of the source.
Legend:
[1] = molecular target: T1, PfCyRPA (Plasmodium falciparum, UniProt Q8IFM8); test: biochemical
[2] = molecular target: T2, New Delhi metallo-beta-lactamase 2 (NDM2) (Klebsiella pneumoniae, UniProt C7C422, P28A); test: biochemical
[3] = molecular target: T1, PfCyRPA; assay type: binding; conditions: compound injected first, then 2-6SLN; both at 1 μM
[4] = system: P. falciparum 3D7 clone; test: In vitro blood stage parasite growth inhibition assay, [3H]-hypoxanthine incorporation, human red blood cells; assay type: cell-based, Plasmodium falciparum
[5] = molecular target: PvCyRPA (Plasmodium vivax, UniProt A5K678, A187P/D259E/E126K/E159D/E86Q/G127E/G69A/H95N/K131E/K185E/K93E/Q142K/R122K/T90K); assay type: binding; conditions: Table 12, PvCyRPA
[6] = molecular target: T1, PfCyRPA
[7] = mice, 7 days post infection
Procedure: To determine the level of ZnPT in serum a methodology using two ZnPT binding proteins was developed.
(§1) Standard curves were run across the following concentrations: • ZnPT—0.61 nM to 10 μM • PT—61 nM to 1 mM • Zinc—0.61 μM to 10 mM

[8] = molecular target: T2, New Delhi metallo-beta-lactamase 2 (NDM2); conditions: read-out: NDM2 KD; Table 9
[9] = for Serum concentration of zinc pyrithione: human
Procedure: Participants were instructed to completely wet hair, measure out 20 mL of anti-dandruff shampoo using a measuring cup provided, pour shampoo onto the scalp and massage shampoo into the scalp, leave shampoo on for 5-10 minutes using the timer provided then completely rinse off shampoo. Blood and urine samples were also collected on day 3 (two days of shampoo use), day 4 (three days of shampoo use), day 5 (day after shampoo use stops) and day 10 (five days after shampoo use has stopped). Serum was separated from blood collected in SST II Advance serum separation tubes (BD) according to the manufacturer's instructions. Sera and urine were batched and stored at −80° C. within 4 hours of collection.
as §1
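For Serum concentration of zinc pyrithione in this document: human volunteers used 1% ZPT shampoo twice daily for three days from day 2, serum sampled on days 1 (pre-use), 3, 4, 5 and 10.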
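For day of the highest serum concentration of ZnPT in this document: human volunteers used 1% ZPT shampoo twice daily for three days from day 2, serum sampled on days 1 (pre-use), 3, 4, 5 and 10.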

T1 sequence (Q8IFM8 29-362): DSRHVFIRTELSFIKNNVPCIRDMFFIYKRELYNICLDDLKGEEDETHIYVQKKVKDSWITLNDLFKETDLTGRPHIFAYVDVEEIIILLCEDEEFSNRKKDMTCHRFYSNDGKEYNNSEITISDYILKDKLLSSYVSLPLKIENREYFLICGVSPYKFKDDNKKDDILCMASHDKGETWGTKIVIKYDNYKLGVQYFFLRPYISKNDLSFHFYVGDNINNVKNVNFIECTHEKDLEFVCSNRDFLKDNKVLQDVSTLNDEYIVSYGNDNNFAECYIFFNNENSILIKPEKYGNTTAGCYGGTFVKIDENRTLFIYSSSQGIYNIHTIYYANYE
T2 sequence (C7C422 29-270 P28A (numbered from the first residue shown)): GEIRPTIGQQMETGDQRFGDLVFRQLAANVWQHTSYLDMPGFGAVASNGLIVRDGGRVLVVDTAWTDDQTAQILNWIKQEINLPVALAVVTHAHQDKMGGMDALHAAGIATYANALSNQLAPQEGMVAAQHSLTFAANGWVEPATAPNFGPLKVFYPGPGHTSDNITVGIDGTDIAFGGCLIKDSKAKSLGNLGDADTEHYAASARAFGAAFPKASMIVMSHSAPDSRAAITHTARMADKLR

On1ccccc1=S [1-Hydroxy-2(1H)-pyridinethione]
Kd [1]: 169 µM | Kd [2]: 894 µM

Zinc Pyrithione
Blocking of 2-6SLN binding [3]: 98.2% ± 3.4 | EC50 in RBC infection ([4]; Table 6, human RBC, P. falciparum 3D7, listed as ZnPT): 163 ng/mL | EC50 ([4]; Table 6, human RBC, P. falciparum 3D7, read-out: EC50 in RBC infection): 513 nM | concentration that completely inhibits P. falciparum infection of human RBCs ([4]; human RBC, listed as ZnPT): 500 ng/mL and 1.57 μM | Kd [5]: 50.8 ± 2.91 nM | Kd [6]: 0.833 ± 0.192 nM | affinity of interaction with PfCyRPA ([6]; SPR): high affinity interaction | Kd ([6]; Table 3, PfCyRPA): 0.833 nM | Kd ([6]; read-out: CyRPA KD, Table 9): 0.833 nM | Serum concentration at the point of testing [7]: < 163 ng/mL | Kd [8]: 38.5 nM | Serum concentration of zinc pyrithione ([9]; Serum 1, Day 1 (before shampoo use)): 0.03 μM ± | Serum concentration of zinc pyrithione ([9]; Serum 1, Day 3, topical 1% ZPT shampoo): 0.04 μM ± | Serum concentration of zinc pyrithione ([9]; Serum 1, Day 4, topical 1% ZPT shampoo): 0.66 μM ± | Serum concentration of zinc pyrithione ([9]; Serum 1, Day 5, topical 1% ZPT shampoo): 2.7 μM ± | Serum concentration of zinc pyrithione ([9]; Serum 1, Day 10, topical 1% ZPT shampoo): −0.07 μM ± | Serum concentration of zinc pyrithione ([9]; Serum 2, Day 1 (before shampoo use)): 0.02 μM ± | Serum concentration of zinc pyrithione ([9]; Serum 2, Day 3, topical 1% ZPT shampoo): 0.88 μM ± | Serum concentration of zinc pyrithione ([9]; Serum 2, Day 4, topical 1% ZPT shampoo): 1.8 μM ± | Serum concentration of zinc pyrithione ([9]; Serum 2, Day 5, topical 1% ZPT shampoo): 4.3 μM ± | Serum concentration of zinc pyrithione ([9]; Serum 2, Day 10, topical 1% ZPT shampoo): 0.33 μM ± | Serum concentration of zinc pyrithione ([9]; Serum 3, Day 1 (before shampoo use)): 0.08 μM ± | Serum concentration of zinc pyrithione ([9]; Serum 3, Day 3, topical 1% ZPT shampoo): 0.24 μM ± | Serum concentration of zinc pyrithione ([9]; Serum 3, Day 4, topical 1% ZPT shampoo): 0.84 μM ± | Serum concentration of zinc pyrithione ([9]; Serum 3, Day 5, topical 1% ZPT shampoo): 1.6 μM ± | Serum concentration of zinc pyrithione ([9]; Serum 3, Day 10, topical 1% ZPT shampoo): 1.0 μM ± | Serum concentration of zinc pyrithione ([9]; Serum 4, Day 1 (before shampoo use)): 0.03 μM ± | Serum concentration of zinc pyrithione ([9]; Serum 4, Day 3, topical 1% ZPT shampoo): 0.81 μM ± | Serum concentration of zinc pyrithione ([9]; Serum 4, Day 4, topical 1% ZPT shampoo): 1.0 μM ± | Serum concentration of zinc pyrithione ([9]; Serum 4, Day 5, topical 1% ZPT shampoo): 1.5 μM ± | Serum concentration of zinc pyrithione ([9]; Serum 4, Day 10, topical 1% ZPT shampoo): 1.2 μM ± | Serum concentration of zinc pyrithione ([9]; Serum 5, Day 1 (before shampoo use)): 0.01 μM ± | Serum concentration of zinc pyrithione ([9]; Serum 5, Day 3, topical 1% ZPT shampoo): 0.02 μM ± | Serum concentration of zinc pyrithione ([9]; Serum 5, Day 4, topical 1% ZPT shampoo): 0.10 μM ± | Serum concentration of zinc pyrithione ([9]; Serum 5, Day 5, topical 1% ZPT shampoo): 0.22 μM ± | Serum concentration of zinc pyrithione ([9]; Serum 5, Day 10, topical 1% ZPT shampoo): 0.02 μM ± | Serum concentration of zinc pyrithione ([9]; Serum 6, Day 1 (before shampoo use)): 0.001 μM ± | Serum concentration of zinc pyrithione ([9]; Serum 6, Day 3, topical 1% ZPT shampoo): 0.10 μM ± | Serum concentration of zinc pyrithione ([9]; Serum 6, Day 4, topical 1% ZPT shampoo): 0.21 μM ± | Serum concentration of zinc pyrithione ([9]; Serum 6, Day 5, topical 1% ZPT shampoo): 0.38 μM ± | Serum concentration of zinc pyrithione ([9]; Serum 6, Day 10, topical 1% ZPT shampoo): 0.007 μM ± | Serum concentration of zinc pyrithione ([9]; Serum 7, Day 1 (before shampoo use)): 0.01 μM ± | Serum concentration of zinc pyrithione ([9]; Serum 7, Day 3, topical 1% ZPT shampoo): 0.84 μM ± | Serum concentration of zinc pyrithione ([9]; Serum 7, Day 4, topical 1% ZPT shampoo): 0.96 μM ± | Serum concentration of zinc pyrithione ([9]; Serum 7, Day 5, topical 1% ZPT shampoo): 1.5 μM ± | Serum concentration of zinc pyrithione ([9]; Serum 7, Day 10, topical 1% ZPT shampoo): 1.2 μM ± | Serum concentration of zinc pyrithione ([9]; Serum 8, Day 1 (before shampoo use)): 0.02 μM ± | Serum concentration of zinc pyrithione ([9]; Serum 8, Day 3, topical 1% ZPT shampoo): 0.02 μM ± | Serum concentration of zinc pyrithione ([9]; Serum 8, Day 4, topical 1% ZPT shampoo): 0.09 μM ± | Serum concentration of zinc pyrithione ([9]; Serum 8, Day 5, topical 1% ZPT shampoo): 0.26 μM ± | Serum concentration of zinc pyrithione ([9]; Serum 8, Day 10, topical 1% ZPT shampoo): 0.11 μM ± | Serum concentration of zinc pyrithione ([9]; Serum 9, Day 1 (before shampoo use)): 0.04 μM ± | Serum concentration of zinc pyrithione ([9]; Serum 9, Day 3, topical 1% ZPT shampoo): 0.22 μM ± | Serum concentration of zinc pyrithione ([9]; Serum 9, Day 4, topical 1% ZPT shampoo): 0.30 μM ± | Serum concentration of zinc pyrithione ([9]; Serum 9, Day 5, topical 1% ZPT shampoo): 0.49 μM ± | Serum concentration of zinc pyrithione ([9]; Serum 9, Day 10, topical 1% ZPT shampoo): 0.14 μM ± | Serum concentration of zinc pyrithione ([9]; Serum 10, Day 1 (before shampoo use)): 0.004 μM ± | Serum concentration of zinc pyrithione ([9]; Serum 10, Day 3, topical 1% ZPT shampoo): 0.15 μM ± | Serum concentration of zinc pyrithione ([9]; Serum 10, Day 4, topical 1% ZPT shampoo): 1.1 μM ± | Serum concentration of zinc pyrithione ([9]; Serum 10, Day 5, topical 1% ZPT shampoo): 1.5 μM ± | Serum concentration of zinc pyrithione ([9]; Serum 10, Day 10, topical 1% ZPT shampoo): 0.98 μM ± | day of the highest serum concentration of ZnPT ([9]; day after three consecutive days of topical treatment): 5 days
